Assay type in all cases: cell-based
Experiment [1] deals with Streptococcus mutans UA159. In words: Biofilm inhibition on hardened tooth filling material test members, LIVE/DEAD BacLight fluorescence (Example 9). The conditions noted are these: for biofilm inhibition (in words): active substance in hardened tooth filling material, carolacton 25 μg/ml, triclosan and chlorohexidine 2500 μg/ml. Here is the method: The admixture from example 2 was used as the tooth filling material according to the invention.
(§1) In addition, three tooth filling materials similar to example 2 were prepared, where carolacton was replaced with triclosan in a first comparison admixture, carolacton was replaced with chlorohexidine in a second comparison admixture and carolacton was omitted in a third comparison admixture (control).
(§2) From each of the tooth filling materials produced, by hardening the tooth filling material 10 dental test members were produced with a diameter of 7 mm and a height of 1 mm and adhesively bonded with a small quantity of the tooth filling material in a total of 40 wells of a 96-well microtitration plate of polystyrene (Greiner Bio-One, μ Clear Plate Black, Frickenhausen, Germany).
In a THB nutrition medium, an over-night culture of Streptococcus mutans UA159 was produced under anaerobic conditions. The over-night culture obtained was diluted to an optimum density (at 620 nm; OD620) of from 0.01 to 0.03 with THB (with addition of 0.5% (G/V) of saccharose). Subsequently, 200 μl of the dilute over-night culture was introduced by pipette into the wells of the 96-well microtitration plate provided with the dental test members. The microtitration plate was subsequently incubated for 20 hours at 37° C. under anaerobic conditions in an incubator.
The determination of the biofilm inhibition was carried out with a LIVE/DEAD BacLight kit L13152 (Invitrogen, Molecular Probes, Inc. Eugene, Oreg., USA), taking note of the manufacturer's instructions. The kit comprises two dye solutions, propidium iodide and SYT09 which each discolour nucleic acids. The excesses of the biofilms in the individual wells of the 96-well microtitration plate were removed. In order to remove plankton-like or loosely bonded bacteria, the biofilm was carefully washed with 200 μl of a 0.85% NaCl solution, mixed with 200 μl of a 1:1 admixture of propidium iodide and SYT09 and subsequently left to stand for 15 minutes and at ambient temperature with light being excluded. The measurement of the fluorescence was carried out on a Wallac Victor3™ 1420Multilabel Counter (Perkin-Elmer Life Sciences) provided with detectors and filters for measuring the fluorescence at 630 nm (red) and 535 nm (green). The biofilm inhibition is given in percent as a quotient between the quotient of green and red fluorescence of the sample with the active substance (carolacton, chlorohexidine or triclosan) and the quotient of green and red fluorescence of the sample without any active substance (control).

The test system of experiment [2] is Streptococcus mutans UA159. In words: Colony-forming units of Streptococcus mutans biofilm after treatment with solutions of active substances (Example 8). The conditions noted are these: for reduction in the colony-forming units: active substance in solution, final concentrations 0.25 μg/ml and 2.5 μg/ml, 20 hours anaerobic at 37° C.; for antimicrobial action in relation to Streptococcus mutans: solutions of the active substances at specific low concentrations (Example 8). The method, then:
In a THB nutrition medium, an over-night culture of Streptococcus mutans UA159 was cultivated anaerobically. That over-night culture was diluted to an optimum density (at 620 nm; OD620) of from 0.01 to 0.03 with THB (with addition of 0.5% (GN) of saccharose) so that a dilute bacterial suspension was obtained.
(§3) Stock solutions and corresponding diluted solutions of chlorohexidine, triclosan and carolacton were produced in methanol. […] of those solutions to be tested were introduced by pipette into microtitration plates; 9 parallel wells were used per substance and concentration. The methanol was evaporated (under a hood) and then 200 μl of the dilute bacterial suspension were added. The final concentrations of the active substances in the 200 μl of bacterial suspension were 0.25 μg/ml and 2.5 μg/ml. The plates were incubated anaerobically at 37° C. without agitation for 20 hours. Subsequently, the excess was removed by pipette, the biofilm was washed with a physiological cooking salt solution (0.85% of NaCl) and the biofilm was scraped off with a pipette. The biofilms from three parallel wells were suspended in 500 μl of PBS. From that biofilm suspension, a serial dilution in PBS was prepared. After each dilution step, vortexing was carried out for 1 minute. From each dilution, 50 μl was distributed three times on agar plates (TH medium). The plates were incubated for three days in the CO2 cupboard at 37° C., then the colony-forming units (CFU) were counted and the bacteria density in relation to […] of biofilm suspension was calculated.

Experiment [3] relates to Streptococcus mutans UA159. The experiment in a line: Colony-forming units in the biofilm on tooth filling material test members (Example 9). Conditions: triclosan and chlorohexidine at a hundred times the concentration of carolacton. The method, then: as §3, §1, §2
In a THB nutrition medium, an over-night culture of Streptococcus mutans UA159 was produced under anaerobic conditions. […]

Usually inhibition stands for the drop in the measured response relative to a control, in per cent. For the molecule `COC(CC(=O)O)C(C)C(=O)C(C)/C=C(\C)C1OC(=O)C(O)C(O)/C=C/C(C)CCCC1C` (stereo not drawn) [carolacton], in experiment [1] (Streptococcus mutans, UA159, active substance 25 μg/ml in hardened tooth filling material of example 2, 20 hours, green/red fluorescence quotient vs control), the inhibition at 25 µg/mL came out at 51%. For the same molecule, the “biofilm inhibition (in words)” value in experiment [1] was “very good biofilm inhibition”. Moreover, in experiment [2], the “reduction in the colony-forming units” value is “merely weakly reduces the number of colony-forming units” and the “antimicrobial action in relation to Streptococcus mutans” value (“antimicrobial action in relation” below) is “only has a weak antimicrobial action”. Further, the “effect on number of CFU in the biofilm (in words)” value (“effect on number of CFU” below) in experiment [3] is reported as “powerful inhibiting effect”.
Consider `Oc1cc(Cl)ccc1Oc1ccc(Cl)cc1Cl` [triclosan], for which the inhibition at 2500 µg/mL in experiment [1] (Streptococcus mutans, UA159, 20 h, read-out: Biofilm inhibition [%]) is 1%. Also, the “biofilm inhibition (in words)” value in experiment [1] was “scarcely influence the biofilm formation”. Further, in experiment [2], the “reduction in the colony-forming units” value is listed as “very powerful reduction in the colony-forming units” and the “antimicrobial action in relation” value is “very powerful antimicrobial activity”. Further, the “effect on number of CFU” value in experiment [3] was “neither triclosan nor chlorohexidine, although used at a hundred times the concentration of carolacton, results in a powerful reduction of the number of CFU”.
Consider `N=C(NCCCCCCNC(=N)NC(=N)Nc1ccc(Cl)cc1)NC(=N)Nc1ccc(Cl)cc1` [chlorohexidine], for which the “Biofilm inhibition [%]” value in experiment [1] (active substance 2500 μg/ml in hardened tooth filling material similar to example 2, 20 hours, green/red fluorescence quotient vs control) turned out to be 1%. For the same molecule, the “biofilm inhibition (in words)” value in experiment [1] was “scarcely influence the biofilm formation”. In addition, in experiment [2], the “reduction in the colony-forming units” value was “very powerful reduction in the colony-forming units” and the “antimicrobial action in relation” value is “very powerful antimicrobial activity”. In addition, in experiment [3], the “effect on number of CFU” value was “neither triclosan nor chlorohexidine, although used at a hundred times the concentration of carolacton, results in a powerful reduction of the number of CFU”.

Values taken from patent publication US9320682B2, “Tooth filling materials and dental varnish for inhibiting the formation of a biofilm of Streptococcus mutans and the production thereof” (VOCO Gmbh, priority 2012, dated 2016).
